Test results: patent US7427623B2, “4-Amino-2,3-disubstituted thieno[2,3-d]pyrimidines and pharmacetical compositions thereof” (SmithKline Beecham Corporation, priority 2001, dated 2008)

Experiments:
[1] = biological target: T1, GST-TIE2 (intracellular domains of human TIE2) (Homo sapiens, UniProt Q02763); assay: TIE-2 Enzyme assay (TIE2-E), LANCE method; type: biochemical; settings: GST-TIE2, 80 uM ATP, D1–15 peptide; for IC50: read-out: TIE2-E pIC50 (converted)
T1 construct: made in house
Procedure: TIE-2 Enzyme assay (TIE2-E)
Preactivated GST-TIE2 was incubated for 30 mins at room temperature in 96 well plates with 1 uM D1–15 peptide, 80 uM ATP, 10 mM MgCl2, 0.1 mg/ml BSA and the test compound (diluted from a 10 mM stock in DMSO, final DMSO concentration was 2.4%) in 1 mM HEPES (pH 7.4). The reaction was stopped by the addition of EDTA (final concentration 45 mM). Streptavidin linked-APC (allophycocyanin, Molecular Probe) and Europium-labeled anti-phosphorylated tyrosine antibody (Wallac) were then added at the final concentration of 17 ug/well and 2.1 ug/well, respectively. The APC signal was measured using an ARVO multilabel counter. (Wallac Berthold Japan). The percent inhibition of activity was calculated relative to blank control wells. […] The IC50 values were converted to pIC50 values, i.e., −log IC50 in Molar concentration.

[2] = biological target: T2, TIE2 intracellular domain/c-fms extracellular domain (TIE2/c-fms) chimeric protein (Homo sapiens, UniProt Q02763); assay: TIE-2 Autophosphorylation Assay (TIE2-C), ELISA; type: cell-based; settings: TIE2/c-fms expressing mouse 3T3 cells, MCSF activation; for IC50: read-out: TIE2-C pIC50 (converted)
T2 construct: TIE2 intracellular domain/c-fms extracellular domain (TIE2/c-fms) chimeric protein; expressed in transfected cells; host or cells: mouse 3T3 cells
Procedure: TIE-2 Autophosphorylation Assay (TIE2-C)
The TIE-2 autophosphorylation assay used an ELISA method and a TIE2 intracellular domain/c-fms extracellular domain (TIE2/c-fms) chimeric protein expressing mouse 3T3 cells. This assay measured the autophosphorylation level of TIE2 protein expressed in cells. The cells were cultured in high glucose DMEM (Sigma) containing 10% serum at 37° C. in a humidified 10% CO2, 90% air incubator. The test compound (diluted from a 10 mM stock in DMSO, final DMSO concentration was 0.1%) was incubated with TIE2/c-fms expressing cells for 1 hr in serum free DMEM in 96 well plates followed by the activation of TIE2/c-fms receptor using c-fms ligand, MCSF (macrophage colony stimulating factor). […] The cell extracts were transferred into Rat anti-c-fms antibody coated 96 well plates and incubated for 12 hrs at 4 degrees. The extracts were removed by aspiration and the plate was incubated with biotinylated anti-phosphotyrosine antibody, PT66 (Sigma) and then with HRP (Horseradish Peroxidase)-labeled streptavidin (PIERCE). The optical density at 450 nm derived from HRP catalyzed TMB was measured with an ARVO multilabel counter. (Wallac Berthold Japan). The percent inhibition of activity was calculated relative to blank control wells. […] The IC50 values were converted to pIC50 values, i.e., −log IC50 in Molar concentration.

[3] = biological target: T3, GST-VEGFR2 (Homo sapiens, UniProt P35968); assay: VEGF-R2 Enzyme Assay (VEGF-E), LANCE method; type: biochemical; settings: GST-VEGFR2, 75 uM ATP; for IC50: read-out: VEGF-E pIC50 (converted)
T3 construct: GST-VEGFR2, baculovirus expressed recombinant constructs of the intracellular domains of human TIE2 tagged by GST; made in house
Procedure: VEGF-R2 Enzyme Assay (VEGF-E)
The VEGF enzyme assay used the LANCE method (Wallac) and GST-VEGFR2, baculovirus expressed recombinant constructs of the intracellular domains of human […] tagged by GST. […] The reaction was stopped by the addition of EDTA (final concentration 50 mM). […] The APC signal was measured using an ARVO multilabel counter (Wallac Berthold, Japan). The percent inhibition of activity was calculated relative to blank control wells. […] The IC50 values were converted to pIC50 values, i.e., −log IC50 in Molar concentration.

[4] = system: Human umbilical cord endothelial cells (HUVEC); assay: VEGF-Driven Cellular Proliferation Assay, BrdU Incorporation Assay (VEGF-C); type: cell-based; settings: for IC50: Homo sapiens, read-out: VEGF-C pIC50 (converted)
Procedure: VEGF-Driven Cellular Proliferation Assay. BrdU Incorporation Assay (VEGF-C)
Human umbilical cord endothelial cells (HUVEC, Clonetics, CC2519) were passaged in Type I collagen-coated 100-mm petridishes in EGM-MV medium (Clonetics, CC3125) at 37 C in a humidified 5% CO2, 95% air incubator. […] After incubation overnight at 37° C., the media were replaced with 100 ul of M199 serum-free medium containing compounds at various concentrations with 0.6% DMSO and gentamicin. The compounds were diluted in serum-free M199 medium from 10 mM stock solutions prepared in 100% DMS0. […] The cells were pulsed with bromodeoxyuridine (BrdU at 10 uM in serum-free M199) at 37° C. for an additional 24 h. […] The optical density at 450 nm was measured with a multilabel counter (ARVO SX, Wallac). The percent inhibition of cell growth was calculated relative to blank control wells. […] The IC50 values were converted to pIC50 values, i.e., −log IC50 in Molar concentration.

T1 sequence (Q02763 762-1104): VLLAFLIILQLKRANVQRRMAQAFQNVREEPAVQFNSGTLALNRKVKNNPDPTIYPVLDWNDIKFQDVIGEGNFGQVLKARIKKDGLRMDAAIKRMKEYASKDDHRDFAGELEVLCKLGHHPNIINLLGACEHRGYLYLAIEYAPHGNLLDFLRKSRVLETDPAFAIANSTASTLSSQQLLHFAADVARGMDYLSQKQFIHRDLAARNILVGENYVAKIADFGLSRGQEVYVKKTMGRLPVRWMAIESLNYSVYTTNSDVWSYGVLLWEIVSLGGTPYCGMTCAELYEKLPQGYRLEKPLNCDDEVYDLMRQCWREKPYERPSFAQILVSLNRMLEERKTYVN
T3 sequence (P35968 786-1356 limits assumed): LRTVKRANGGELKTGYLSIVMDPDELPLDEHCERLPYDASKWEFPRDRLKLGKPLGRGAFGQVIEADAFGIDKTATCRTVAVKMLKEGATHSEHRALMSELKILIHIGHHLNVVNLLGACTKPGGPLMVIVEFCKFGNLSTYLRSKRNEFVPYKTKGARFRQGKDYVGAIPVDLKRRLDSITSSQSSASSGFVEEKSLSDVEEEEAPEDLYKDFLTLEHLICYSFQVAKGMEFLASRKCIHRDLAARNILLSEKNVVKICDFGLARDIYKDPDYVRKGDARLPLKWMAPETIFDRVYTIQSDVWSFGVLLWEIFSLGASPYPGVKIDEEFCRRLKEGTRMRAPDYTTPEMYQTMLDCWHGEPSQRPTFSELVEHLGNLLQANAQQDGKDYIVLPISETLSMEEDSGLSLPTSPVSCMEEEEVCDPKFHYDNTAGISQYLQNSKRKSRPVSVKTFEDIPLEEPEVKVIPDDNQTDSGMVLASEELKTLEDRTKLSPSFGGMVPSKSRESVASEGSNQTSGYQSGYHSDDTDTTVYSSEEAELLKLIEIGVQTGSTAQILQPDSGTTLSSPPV
T2 sequence (Q02763 770-1124 limits assumed, change not shown): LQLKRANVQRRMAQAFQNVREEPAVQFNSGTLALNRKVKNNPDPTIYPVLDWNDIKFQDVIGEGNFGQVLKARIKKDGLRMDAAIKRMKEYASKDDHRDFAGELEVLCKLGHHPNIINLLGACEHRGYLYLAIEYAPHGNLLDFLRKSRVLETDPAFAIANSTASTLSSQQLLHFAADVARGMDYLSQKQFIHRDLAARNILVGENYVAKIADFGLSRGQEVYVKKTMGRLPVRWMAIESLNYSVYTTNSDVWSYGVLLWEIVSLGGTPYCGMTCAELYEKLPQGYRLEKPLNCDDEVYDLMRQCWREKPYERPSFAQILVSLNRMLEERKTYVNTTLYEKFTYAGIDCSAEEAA
T2 sequence (P07333 20-517 partner limits assumed): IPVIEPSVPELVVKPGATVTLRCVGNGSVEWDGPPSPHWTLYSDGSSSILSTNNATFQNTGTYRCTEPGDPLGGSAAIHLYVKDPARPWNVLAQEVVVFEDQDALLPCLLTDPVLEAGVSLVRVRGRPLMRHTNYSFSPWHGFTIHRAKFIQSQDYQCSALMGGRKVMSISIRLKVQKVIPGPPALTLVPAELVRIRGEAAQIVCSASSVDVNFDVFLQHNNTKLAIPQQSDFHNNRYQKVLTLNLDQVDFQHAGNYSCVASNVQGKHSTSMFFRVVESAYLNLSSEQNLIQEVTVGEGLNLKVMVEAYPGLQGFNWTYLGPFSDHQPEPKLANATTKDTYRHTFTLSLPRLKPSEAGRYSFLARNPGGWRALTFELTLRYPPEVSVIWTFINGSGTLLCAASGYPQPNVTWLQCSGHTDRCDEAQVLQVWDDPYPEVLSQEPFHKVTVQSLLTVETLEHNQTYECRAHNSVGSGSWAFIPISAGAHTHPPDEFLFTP
T2 sequence (P09603 33-190 partner limits assumed): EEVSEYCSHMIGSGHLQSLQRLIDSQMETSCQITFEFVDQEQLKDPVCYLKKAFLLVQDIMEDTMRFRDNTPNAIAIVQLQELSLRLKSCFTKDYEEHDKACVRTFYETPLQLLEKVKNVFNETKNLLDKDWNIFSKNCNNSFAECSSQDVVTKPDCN

## Nc1ncnc2oc(-c3ccoc3)c(-c3ccco3)c12 [Example 15]
[1]
  TIE2-E pIC50: + (+ = pIC50 of 5.0–6.0)
[2]
  TIE2-C pIC50: + (+ = pIC50 of 5.0–6.0)
[3]
  VEGF-E pIC50: ++ (++ = pIC50 of 6.0–7.0)
[4]
  VEGF-C pIC50: + (+ = pIC50 of 5.0–6.0)

## Cc1ccc(-c2oc3ncnc(N)c3c2-c2ccc(C)cc2)cc1 [Example 16]
[1]
  TIE2-E pIC50: + (+ = pIC50 of 5.0–6.0)
[2]
  TIE2-C pIC50: + (+ = pIC50 of 5.0–6.0)
[3]
  VEGF-E pIC50: ++ (++ = pIC50 of 6.0–7.0)
[4]
  VEGF-C pIC50: + (+ = pIC50 of 5.0–6.0)

## NC(=O)c1cccc(-c2oc3ncnc(N)c3c2-c2ccc(-c3ccccc3)cc2)c1 [Example 131, 4-Amino-3-(4-biphenyl)-2-(3-carbamoylphenyl)furo[2,3-d]pyrimidine]
[1]
  IC50: 100 to 1000 nM
[2]
  IC50: 100 to 1000 nM
[3]
  IC50: 100 to 1000 nM
[4]
  IC50: 1000 to 10000 nM

## CC(=O)Nc1cccc(-c2oc3ncnc(N)c3c2-c2ccc(-c3ccccc3)cc2)c1 [Example 132, 2-(3-Acetamidophenyl)-4-amino-3-(4-biphenyl)furo[2,3-d]pyrimidine]
[1]
  IC50: 1000 to 10000 nM
[2]
  IC50: 100 to 1000 nM
[3]
  IC50: 100 to 1000 nM
[4]
  IC50: 1000 to 10000 nM

## CN(C)CCNC(=O)Nc1cccc(-c2oc3ncnc(N)c3c2-c2ccc(-c3ccccc3)cc2)c1 [Example 159, 4-Amino-3-(4-biphenyl)-2-((3-(2-(dimethylamino)ethyl)-aminocarbonylamino)phenyl)furo-[2,3-d]pyrimidine]
[1]
  IC50: 100 to 1000 nM
[2]
  IC50: 100 to 1000 nM
[3]
  IC50: 100 to 1000 nM
[4]
  IC50: 100 to 1000 nM

## Nc1ncnc2oc(-c3cccc(S(N)(=O)=O)c3)c(-c3ccc(-c4ccccc4)cc3)c12 [Example 166, 4-Amino-3-(4-biphenyl)-2-(3-sulfamoylphenyl)furo[2,3-d]pyrimidine]
[1]
  IC50: 100 to 1000 nM
[2]
  IC50: 100 to 1000 nM
[3]
  IC50: < 100 nM
[4]
  IC50: 1000 to 10000 nM

## NC(=O)Nc1cccc(-c2oc3ncnc(N)c3c2-c2ccc(-c3ccccc3)cc2)c1 [Example 184, 4-Amino-2-(3-(aminocarbonylamino)phenyl)-3-(4-biphenyl)furo[2,3-d]pyrimidine]
[1]
  IC50: 100 to 1000 nM
[2]
  IC50: 100 to 1000 nM
[3]
  IC50: < 100 nM
[4]
  IC50: 1000 to 10000 nM

## COc1ccc(-c2oc3ncnc(N)c3c2-c2ccc(-c3ccccc3)cc2)cc1NS(C)(=O)=O [Example 189, 4-Amino-3-(4-biphenyl)-2-(4-methoxy-3-(methylsulfonylamino)phenyl)furo[2,3-d]pyrimidine]
[1]
  IC50: 100 to 1000 nM
[2]
  IC50: 100 to 1000 nM
[3]
  IC50: < 100 nM
[4]
  IC50: 1000 to 10000 nM

## NC(=O)Nc1ccc(-c2oc3ncnc(N)c3c2-c2ccc(-c3ccccc3)cc2)cc1 [Example 192, 4-Amino-3-(4-biphenyl)-2-(4-(aminocarbonylamino)phenyl)furo[2,3-d]pyrimidine]
[1]
  IC50: 100 to 1000 nM
[2]
  IC50: 100 to 1000 nM
[3]
  IC50: < 100 nM
[4]
  IC50: 1000 to 10000 nM

## Nc1ncnc2oc(-c3ccc4[nH]nnc4c3)c(-c3ccc(-c4ccccc4)cc3)c12 [Example 196, 4-Amino-2-(5-benzotriazolyl)-3-(4-biphenyl)furo[2,3-d]pyrimidine]
[1]
  IC50: 100 to 1000 nM
[2]
  IC50: 100 to 1000 nM
[4]
  IC50: 1000 to 10000 nM

## Nc1ncnc2oc(-c3ccc4[nH]cnc4c3)c(-c3ccc(-c4ccccc4)cc3)c12 [Example 198, 4-Amino-2-(5-benzimidazolyl)-3-(4-biphenyl)furo[2,3-d]pyrimidine]
[1]
  IC50: 100 to 1000 nM
[2]
  IC50: 100 to 1000 nM
[4]
  IC50: 1000 to 10000 nM
